From EP1310250A1, “Use of the compound 2-methoxyphenyl-1-methyl-5P-methylbenzoyl-pyrrol-2-acetamido acetate for the production of an antiinflammatory drug with prevention of gastric hypersecretion and renal impairment” (MEDOSAN Ricerca S.r.l., priority 1997, dated 1999)

Columns and labels:
[1] = tested on: carrageenin-induced paw oedema; test: Determination of ID50, carrageenin-induced paw oedema; type: in vivo, rat; details: five times the oral ID50 for oedema inhibition, 2 h after carrageenin
Protocol: ID50, relative to the products under examination (considered in table 1), has been evaluated using the anti-inflammatory response to carrageenin-induced paw oedema (according to Wong et al, J Pharmacol Exp, 1973:1855; pages 127-138). The products, suspended in 1% CMC, were administered orally in a total volume of 5 ml/rat. 1 h later, 0.1 ml of 1% carrageenin sterile solution was injected into the hind subplantar aponeurosis. Volume of the paw was measured immediately prior to injection of the phlogogen and 2 h thereafter, by means of a plethysmograph. The percentage of inhibition of oedema was calculated as follows: 1 - ΔV treated/ΔV control x 100 [formula] where ΔV = final V - initial V.

[2] = tested on: isolated, perfused, immature rat stomach; test: Antisecretive activity in vitro, isolated perfused immature rat stomach; details: for Δacid: mean±S.E.
Text: Male Wistar rats, 250±10 g b.w. (Charles River, Calco, Como, Italy), quarantined for five days prior to the beginning of the trial and divided into groups of 3 animals per cage, were used for determination of gastric lesions and of ID50 determination. Immature male Wistar rats, 30-45 g b.w. (Harlan Nossan, Milano) were used for the determination of the antisecretory effect on isolated rat stomach. The guinea-pigs used were the Dunkin Hartley guinea-pigs (Harlan Nossan, Milano, Italy).
At the beginning, the isolated, perfused, immature rat stomach, treated externally with the study product, was used. We preferred to use the isolated stomach in toto rather than strips (B.R. No. 18, 19 and 20) in order not to exclude a section of the stomach (the antrum), unimportant for acid secretion but very important for the secretion of bicarbonates and bioactive peptides (b.r. No. 21, 22). The results were encouraging, since amtolmetin guacyl inhibited acid production stimulated by the three classic agonists (histamine, acetilcholine and gastrin) both using varying doses of agonist or varying doses of amtolmetin guacyl (Table 5).
The results are expressed as mean±S.E.

gastric acid secretion = test: Antisecretory activity in vivo in rat, histamine-induced acid secretion
Protocol: The methods used were those described by G Coruzzi, M. Adami, C. Pozzoli, E. Poli, G. Bertaccini (Pharmacology 1994;48: pages 69-76) and M. Leitold, W. Fleissig and A. Merk (Arzneim-Forsch/Drug Res. 34(I), Nr. 4, 1984).
The animals were treated in oral administration with amtolmetin guacyl 50 or 100 mg/kg, 1 h before the beginning of the perfusion with histamine. The controls received only the vehicle (CMC 1%).
After anaesthesia with urethan (1.25 g/kg i.p.), the oesophagus was ligated close to the stomach. Two cannulas of polyethylene are then inserted: one was inserted in the forestomach, the second one was inserted directly into the pyloric sphincter. The stomach was flushed with saline at 37°C (1 ml/min) and the flushed liquid, collected every 15 minutes, titred at ph 7 with NaOH 10^-2 M. The acid secretion was induced by an intravenous infusion (0.1 ml/min) of histamine (30 µmol/kg/h).
The acidity is expressed as µEqH^+/15 min.

[3] = tested on: blood pressure and cardiovascular system; test: Drug safety trials on blood pressure and cardiovascular system; details: rat, in vivo
Text: From a toxicological viewpoint the drug offers an excellent torability profile.

[4] = in vivo
[5] = tested on: fertility, embriotoxicity and teratogenicity; test: Fertility, embryotoxicity and teratogenicity studies, rat; type: in vivo
human lymphocites = test: Chromosome aberrations in lymphocytes cultivated in vitro; type: cell-based
Carcinogenesis = Carcinogenesis studies, gavage over life-span; type: in vivo, rat; details: gavage for a period covering the animal's life-span
[6] = tested on: guinea-pig isolated ileum; test: Intestinal motility in isolated ileum, various agonists; details: all of the traditional agonists: histamine, acetylcholine, serotonin (fig. 7, 8 and 9)
Text: In parallel we also studied the possible effect on intestinal motility in the guinea-pig isolated ileum (b.r. No. 29) using various agonists (fig. 7, 8 and 9).

[7] = tested on: rat isolated stomach strips; test: Gastric motility in isolated stomach strips, acetylcholine and serotonin as agonists; details: acetilcholine and serotonin as agonists (fig. 10, 11 and 12)
diuresis = test: Diuresis in normally hydrated rats; type: in vivo; details: normally hydrated rats treated orally for 8 consecutive days (figure 13)
Protocol: In the course of various studies conducted on animals to show the lack of renal impairment, a test was carried out to compare the diuresis in normally hydrated rats treated orally for 8 consecutive days with amtolmeting guacyl and diclofenac, which is also a NSAID.

[8] = tested on: CGRP (calcitonin gene related peptide); test: Peptone-stimulated gastric acid secretion after treatment with CGRP8-37; type: in vivo, rat; details: peptone-stimulated gastric acid secretion (fig. 14)
rheumatoid arthritis = test: Clinical trials: antiphlogistic activity in rheumatoid arthritis; type: in vivo, man; set-up: key to Antiphlogistic activity evaluation: excellent ^++++; good ^+++; poor ^++
Text: Amtolmetin guacyl was compared with ibuprofen, indomethacin, piroxicam and tolmetin.

[9] = tested on: extra-articular rheumatism; test: Clinical trials: antiphlogistic activity in extra-articular rheumatism; type: in vivo, man; set-up: key: excellent ^++++; good ^+++; poor ^++
Text: In extra-articular rheumatism amtolmetin guacyl was compared with diclofenac, naproxen and piperazine propionate.

COX2 (cyclooxygenase 2) = target: T1, COX2 (cyclooxygenase 2) (Rattus norvegicus, UniProt P35355); test: Pharmacological studies in rats: COX2 inhibition; type: in vivo; details: studies conducted in rats
T1 construct: from tissue; host or cells: rat (in vivo pharmacological studies; tissue not given)
T1 sequence (P35355 18-604): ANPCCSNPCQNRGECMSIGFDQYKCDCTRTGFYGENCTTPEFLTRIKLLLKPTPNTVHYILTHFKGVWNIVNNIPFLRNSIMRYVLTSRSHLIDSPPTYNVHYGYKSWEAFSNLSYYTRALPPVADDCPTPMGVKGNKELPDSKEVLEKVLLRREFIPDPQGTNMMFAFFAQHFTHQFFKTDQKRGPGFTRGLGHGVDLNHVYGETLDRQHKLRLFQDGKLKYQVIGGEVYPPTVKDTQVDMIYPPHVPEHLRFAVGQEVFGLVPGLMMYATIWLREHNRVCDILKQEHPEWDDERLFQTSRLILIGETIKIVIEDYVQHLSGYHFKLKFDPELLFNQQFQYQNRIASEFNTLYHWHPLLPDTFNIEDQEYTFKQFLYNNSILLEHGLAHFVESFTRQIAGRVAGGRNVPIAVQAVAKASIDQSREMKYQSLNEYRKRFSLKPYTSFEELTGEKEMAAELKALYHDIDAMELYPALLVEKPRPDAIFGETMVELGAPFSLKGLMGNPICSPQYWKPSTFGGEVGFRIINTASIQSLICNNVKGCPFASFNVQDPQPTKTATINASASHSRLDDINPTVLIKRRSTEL

basal acid secretion = test: Basal acid secretion; details: amtolmetin guacyl per se
[10] = agonist Acetylcholine 10^-3 M, antagonist 10^-4 M
[11] = agonist Gastrin 6x10^-7 M, antagonist 10^-4 M
[12] = agonist Histamine 10^-3 M, antagonist 10^-4 M
[13] = agonist Histamine 10^-4 M, antagonist 10^-4 M
[14] = agonist Histamine 10^-4 M, antagonist 10^-5 M

COc1ccccc1OC(=O)CNC(=O)Cc1ccc(C(=O)c2ccc(C)cc2)n1C [amtolmetin guacyl, 2-methoxyphenyl-1-methyl-5p-methylbenzoylpyrrol-2-acetamido acetate]
Ratio to rat dosage (mg/kg) (ID50 mg/kg x5) [1]: 100 mg/kg
% inhib. [2, 10]: 21.5%
Δacid [2, 10]: 71.2 ± 5.4 nmol/min
% inhib. [2, 11]: 52.1%
Δacid [2, 11]: 30.7 ± 3.7 nmol/min
% inhib. [2, 12]: 57.7%
Δacid [2, 12]: 17.9 ± 2.1 nmol/min
% inhib. [2, 13]: 62.6%
Δacid [2, 13]: 19.2 ± 5.4 nmol/min
% inhib. [2, 14]: 68.7%
Δacid [2, 14]: 16.1 ± 5.4 nmol/min
acidity (gastric acid secretion; 50 mg/kg oral 1 h before histamine perfusion, time 0 min): 4 µEqH^+/15'
acidity (gastric acid secretion; 50 mg/kg oral 1 h before histamine perfusion, time 15 min): 4 µEqH^+/15'
acidity (gastric acid secretion; 50 mg/kg oral 1 h before histamine perfusion, time 30 min): 5 µEqH^+/15'
acidity (gastric acid secretion; 50 mg/kg oral 1 h before histamine perfusion, time 45 min): 11 µEqH^+/15'
acidity (gastric acid secretion; 50 mg/kg oral 1 h before histamine perfusion, time 60 min): 15 µEqH^+/15'
acidity (gastric acid secretion; 50 mg/kg oral 1 h before histamine perfusion, time 75 min): 17 µEqH^+/15'
acidity (gastric acid secretion; 50 mg/kg oral 1 h before histamine perfusion, time 90 min): 19 µEqH^+/15'
acidity (gastric acid secretion; 50 mg/kg oral 1 h before histamine perfusion, time 105 min): 18.5 µEqH^+/15'
acidity (gastric acid secretion; 50 mg/kg oral 1 h before histamine perfusion, time 120 min): 22 µEqH^+/15'
acidity (gastric acid secretion; 50 mg/kg oral 1 h before histamine perfusion, time 135 min): 20 µEqH^+/15'
acidity (gastric acid secretion; 100 mg/kg oral 1 h before histamine perfusion, time 0 min): 8 µEqH^+/15'
acidity (gastric acid secretion; 100 mg/kg oral 1 h before histamine perfusion, time 15 min): 7 µEqH^+/15'
acidity (gastric acid secretion; 100 mg/kg oral 1 h before histamine perfusion, time 30 min): 9 µEqH^+/15'
acidity (gastric acid secretion; 100 mg/kg oral 1 h before histamine perfusion, time 45 min): 11 µEqH^+/15'
acidity (gastric acid secretion; 100 mg/kg oral 1 h before histamine perfusion, time 60 min): 12 µEqH^+/15'
acidity (gastric acid secretion; 100 mg/kg oral 1 h before histamine perfusion, time 75 min): 13 µEqH^+/15'
acidity (gastric acid secretion; 100 mg/kg oral 1 h before histamine perfusion, time 90 min): 14 µEqH^+/15'
acidity (gastric acid secretion; 100 mg/kg oral 1 h before histamine perfusion, time 105 min): 15 µEqH^+/15'
acidity (gastric acid secretion; 100 mg/kg oral 1 h before histamine perfusion, time 120 min): 13 µEqH^+/15'
acidity (gastric acid secretion; 100 mg/kg oral 1 h before histamine perfusion, time 135 min): 14 µEqH^+/15'
effects on blood pressure and on the cardiovascular system [3]: absence of effects on blood pressure and on the cardiovascular system
drug tolerability [4]: excellent drug tolerability
fertility, embriotoxicity and teratogenicity [5]: demonstrated the safety product
chromosomic aberrations (human lymphocites): absence of amtolmetin guacyl-related damage
Carcinogenesis (Carcinogenesis): innocuity of the product
intestinal motility [6]: decrease in motility
gastric motility [7]: clear evidence of down-regulation of motility
diuresis (diuresis): definite increase in diuresis
effect of the CGRP antagonist CGRP8-37 on the activity on gastric secretion [8]: blockage of the amtolmetin guacyl - related activity on gastric secretion
Evaluation of antiphlogistic activity (rheumatoid arthritis; 150 patients, 30 days, versus Ibuprofen, Indomethacin, Piroxicam, Tolmetin): Amtolmetin guacyl demonstrated statistical significant activity more rapid and more marked when compared to the reference NSAIDs in rheumatoid arthritis.
Antiphlogistic activity evaluation (rheumatoid arthritis; Rheumatoid arthritis): ^++++
Antiphlogistic activity evaluation [9]: ^+++
inhibition of COX2 (COX2 (cyclooxygenase 2)): inhibition
effect on basal acid secretion (basal acid secretion): fails to modify basal acid secretion
